{
  "source": "patent US7332489B2",
  "about": "“Methods and compositions of novel triazine compounds” (Reddy US Therapeutics, Inc., priority 2003, dated 2008)",
  "key": {"TNF-α induced IL-6": {"tested_on": "TNF-α induced IL-6", "experiment": "TNF-α-induced IL-6 production determined by IL-6 ELISA", "format": "cell-based", "outline": "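Human aortic endothelial cells grown to ≥90% confluence, then treated with compounds and stimuli in serum-free medium with 0.2% albumin. Secreted IL-6 in collected media measured by sandwich ELISA (2 ug/ml capture, 200 ng/ml biotinylated detection antibody, streptavidin-HRP), read at 450 nm.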"}, "[1]": {"tested_on": "Human aortic smooth muscle cells", "details": "24 h", "procedure": "Human aortic smooth muscle cells (Clonetics) were used. Cells were grown in basal medium containing 5% fetal bovine serum supplemented with growth factors, basic fibroblast growth factor, epidermal growth factor and insulin. […] The cells were then serum starved for 24 h to induce quiescence. Fresh growth medium containing no compound or 10 μM compound was then added and further incubated for 24 h. Cell number was determined by using a cell proliferation assay kit (Celltiter96 AQueous from Promega)."}, "G-HSA induced IL-6": {"tested_on": "G-HSA induced IL-6", "experiment": "AGE-induced inflammatory response determined by IL-6 ELISA (glycated human serum albumin stimulus)", "format": "cell-based", "details": "24 h, read-out: % IL6 production compare to AGE stimulation of IL6 (100%), Compds tested @ 10 uM HAEC, IL6", "description": "Human aortic endothelial cells (HAEC, Clonetics) were cultured according to manufacturer in growth medium (Clonetics): basal medium containing human epidermal growth factor, hydrocortisone, vascular endothelial growth factor, heparin binding growth factor-B, long R3-insulin-like growth factor-1, ascorbic acid, gentamicin/amphotericin and 5% FBS. These cell were allowed to reach at least 90% confluency before subjected to experimental treatments. Glycated human serum albumin (G-HSA) was from US Biologicals. Tumor necrosis factor α was from R&D Systems.\nEndothelial cells were treated with control medium or medium containing 10 to 100 ng/ml TNF-α or 300 μg/ml glycated-HAS (treated cells or treatments) for 24 hrs, in control and compound-added duplicates, containing 10 μM compound. All treatments, compound-added and controls were carried out in serum free media containing 0.2% albumin. Media from all conditions were collected and used for IL-6 ELISA.\nIL-6 ELISA was carried out using human IL-6 DuoSet ELISA development kit as described by manufacturer (R&D Systems). Mouse anti-human Il-6 was used as the capture antibody (2 ug/ml) and biotinylated goat anti-human IL-6 (200 ng/ml) was used as the detection antibody. Culture media were incubated with capture antibody (in 96 well) for 2 h at room temperature. […] Color development was read at 450 nm in a Microplate reader."}, "endothelial cells": {"tested_on": "endothelial cells", "experiment": "Toxicity to endothelial cells when AGE stimulated", "format": "cell-based", "description": "In general, to determine if there is cytotoxic activity associated with a compound, cells of a particular type, in a growing stage or a quiescient stage, are treated with the compound of interest. Various parameters of cell death or cessation are used to measure the effects of the compound. For example, the amount of nucleic acid or protein synthesis can be measured or visual observation of the state of the cells, such as release from the substrate, can be used to measure the state of the cells.\nAll treatments, compound-added and controls were carried out in serum free media containing 0.2% albumin. Media from all conditions were collected and used for IL-6 ELISA."}, "cells": {"tested_on": "cells", "experiment": "Cytotoxicity/Lactate Dehydrogenase assay", "format": "cell-based", "details": "toxic or cause cell death; concentrations (uM) given", "description": "An appropriate number of cells are plated in four 96-well plates, one plate for “day 0” and three plates for days 1-3. Cells are treated with at least one compound of the present invention in varying concentrations with and without the apoptosis inducer cisplatin (2 μM) (“+cis” or “-cis”). Unteated cells are also assayed with and without cisplatin. After transfection, the plates are incubated at 37° C. overnight.\nAn appropriate number of cells are plated in four 96-well plates, one plate for “day 0” and three plates for days 1-3. Cells are treated with at least one compound of the present invention in varying concentrations. The negative control cells have normal media conditions, a duplicate set of wells is treated with the composition in which the compound is provided, but there is no added compound and the positive control cells are treated with the apoptosis inducer cisplatin (2 μM). All of the cells are transfected with a vector having a promoter that is responsive to apoptosis conditions. When apoptosis occurs, the promoter is turned on and the lactic dehydrogenase gene is activated and the enzyme protein is made and active. Activity is easily detected with a color change. After transfection, the plates are incubated at 37° C. overnight.\nAbout 8 mls of warmed alpha MEM LDH lysis buffer (2% Triton X100) and about 8 mls of culture media (1/2 dilution) are combined. Two 96-well v-bottom plates are prepared, one labeled “lysis” and one labeled “supernatant.” To lyse the cells, about 200 μl Alpha MEM lysis buffer (diluted 1/2) is added to one test plate from which the supernatant has been removed and added to the plate labeled supernatant. After mixing, about 200 μl of lysed cells are transferred to the lysis plate. Both the lysis and supernatant plates are centrifuged at about 1600 rpm for about 10 min. After centrifugation, about 100 μl of both the supernatant or lysate is transferred to corresponding 96-well flat-bottomed plates.\nThe assay for cytotoxicity uses the Cytotoxicity Detection Kit (LDH) from Roche Diagnostics Corp. (Indianapolis, Ind.). Using the directions provided, the dye solution is mixed and added each well of the lysate and supernatant plate and incubated for up to 20-25 min at 15-25° C. in the dark."}},
  "note": "Like-named read-outs stand apart in the source and are kept apart here.",
  "data": [
    {"smiles": "CN1CCC(N(C)c2nc(Nc3ccc(OCc4ccccc4)c(Cl)c3)nc(NC3CCCCCC3)n2)CC1", "values": [
      {"measurement": "Inflammation Data, activity in words at 1 uM", "setting": "TNF-α induced IL-6", "value": "Not active"},
      {"measurement": "Inflammation Data, activity in words at 5 uM", "setting": "TNF-α induced IL-6; 5 uM", "value": "Not active"},
      {"measurement": "Inflammation Data, cell death at 5 uM", "setting": "TNF-α induced IL-6; 5 uM", "value": 30, "unit": "%"},
      {"measurement": "Inflammation Data, cell death at 10 uM", "setting": "TNF-α induced IL-6; 10 uM", "value": "totaldeath"},
      {"measurement": "Proliferation Data, cell death", "setting": "[1]", "value": "no celldeath"},
      {"measurement": "Proliferation Data, cell morphology (rounding, blunting, morphology change)", "setting": "[1]", "value": "cell morphologychange at 5 & 10 uM"}
    ]},
    {"smiles": "CN(c1nc(Nc2ccc(OCc3ccccc3)c(Cl)c2)nc(NC2CCCCCC2)n1)C1CCNCC1", "values": [
      {"measurement": "Inflammation Data, activity in words at 1 uM", "setting": "TNF-α induced IL-6", "value": "not active"},
      {"measurement": "Inflammation Data, cell death at 5 uM", "setting": "TNF-α induced IL-6; 5 uM", "value": 50, "unit": "%"},
      {"measurement": "Inflammation Data, cell death at 10 uM", "setting": "TNF-α induced IL-6; 10 uM", "value": "total cell death"},
      {"measurement": "Proliferation Data, cell death", "setting": "[1]", "value": "celldeath at 10 uM"},
      {"measurement": "Proliferation Data, cell morphology (rounding, blunting, morphology change)", "setting": "[1]", "value": "cell morphologychange at 7.5 uM"}
    ]},
    {"smiles": "CCN1CCCC1CNc1nc(Nc2scc(C)c2C(N)=O)nc(NC2CCCCCC2)n1", "note": "(centres unmarked) [Compound 39, 2-[(4-(cycloheptylamino)-6-{[(1-ethyl-2-pyrrolidinyl)methyl]amino}-1,3,5-triazin-2-yl)-amino]-4-methyl-3-thiophenecarboxamide]", "values": [
      {"measurement": "activity at 10 µM", "setting": "TNF-α induced IL-6; Homo sapiens, 24 h, Table 5, second part, column 1, class = % of control IL6 production, read-out: Inhibition of TNF-induced IL6, production", "value": "25 to 50", "unit": "%"},
      {"measurement": "activity at 10 µM", "setting": "G-HSA induced IL-6; HAEC, 10 uM compound, AGE stimulation = 100%", "value": 26, "unit": "%"}
    ]},
    {"smiles": "COc1ccc(Nc2nc(Nc3ccc(OC)c(Cl)c3)nc(N(C)C3CCN(C)CC3)n2)cc1Cl", "note": "[Compound 121, N,N′-Bis-(3-chloro-4-methoxy-phenyl)-N″-methyl-N″-(1-methyl-piperidin-4-yl)-[1,3,5]triazine-2,4,6-triamine]", "values": [
      {"measurement": "Toxic (AGE-treated)", "setting": "endothelial cells", "value": "toxic"},
      {"measurement": "% IL6 production compare to TNF stimulation of IL6 (100%), HAEC, IL6, @ 5 uM", "setting": "TNF-α induced IL-6; HAEC, TNF stimulated, compound 5 uM (bracketed value)", "value": "[50 @ 5 uM, but some %"},
      {"measurement": "% IL6 production compare to TNF stimulation of IL6 (100%), Compds tested @ 10 uM HAEC, IL6", "setting": "TNF-α induced IL-6; HAEC, TNF stimulated, compound 10 uM", "value": "total cell death @ 10 uM"},
      {"measurement": "toxicity @ 5 uM", "setting": "TNF-α induced IL-6; human, 24 h, 5 µM", "value": "toxicity (~20%)]"},
      {"measurement": "Toxicity", "setting": "cells", "value": "Toxic by toxicityassay at 0.75 uM.Starts blunting by1 uM and rounding by5 uM"}
    ]},
    {"smiles": "CN1CCC(N(C)c2nc(Nc3ccc4ccccc4c3)nc(NC3CC3)n2)CC1", "note": "[Compound 180, N-Cyclopropyl-N′-methyl-N′-(1-methyl-piperidin-4-yl)-N″-naphthalen-2-yl-[1,3,5]tri-azine-2,4,6-triamine]", "values": [
      {"measurement": "inhibition at 10 µM", "setting": "TNF-α induced IL-6; Homo sapiens, 24 h, read-out: Inhibition of TNF-induced IL6 production, Table 7, first part", "value": "85 to 100", "unit": "%"},
      {"measurement": "inhibition at 10 µM", "setting": "TNF-α induced IL-6; Homo sapiens, 24 h, read-out: Inhibition of TNF-induced IL6 production, Table 7, second part, column 1", "value": "50 to 65", "unit": "%"},
      {"measurement": "activity at 10 µM", "setting": "G-HSA induced IL-6", "value": 5, "unit": "%"}
    ]},
    {"smiles": "CN1CCC(N(C)c2nc(Nc3ccc(O)c(Cl)c3)nc(NC3CCCCCC3)n2)CC1", "note": "[drawing 1613]", "values": [
      {"measurement": "Inflammation Data, cell death at 10 uM", "setting": "TNF-α induced IL-6; human, 24 h, 10 µM", "value": "total cell death"},
      {"measurement": "Proliferation Data, cell morphology (rounding, blunting, morphology change)", "setting": "[1]", "value": "cell bluntingat 3 to 10 uM"}
    ]}
  ]
}
